Measurements published in patent US5409941A, “5-heteroyl indole derivatives” (Pfizer Inc., priority 1993, dated 1995).

What follows are compounds tested against T1, 5-HT1D (Bos taurus, UniProt F1MGM3) (assay: 5-HT1D activity, method of R. E. Heuring and S. J. Peroutka). Details: not given.
T1 construct: from tissue
Format: binding
Procedure: The active compounds of the invention are evaluated as anti-migraine agents by testing the extent to which they mimic sumatriptan in contracting the dog isolated saphenous vein strip (P. P. A. Humphrey et al., Br. J. Pharmacol., 94, 1128 (1988)). This effect can be blocked by methiothepin, a known serotonin antagonist. Sumatriptan is known to be useful in the treatment of migraine and produces a selective increase in carotid vascular resistance in the anaesthetized dog. […] The active compounds are also evaluated using the method of R. E. Heuring and S. J. Peroutka (J. Neuroscience, 7, 894 (1987)).

T1 sequence (F1MGM3 1-403): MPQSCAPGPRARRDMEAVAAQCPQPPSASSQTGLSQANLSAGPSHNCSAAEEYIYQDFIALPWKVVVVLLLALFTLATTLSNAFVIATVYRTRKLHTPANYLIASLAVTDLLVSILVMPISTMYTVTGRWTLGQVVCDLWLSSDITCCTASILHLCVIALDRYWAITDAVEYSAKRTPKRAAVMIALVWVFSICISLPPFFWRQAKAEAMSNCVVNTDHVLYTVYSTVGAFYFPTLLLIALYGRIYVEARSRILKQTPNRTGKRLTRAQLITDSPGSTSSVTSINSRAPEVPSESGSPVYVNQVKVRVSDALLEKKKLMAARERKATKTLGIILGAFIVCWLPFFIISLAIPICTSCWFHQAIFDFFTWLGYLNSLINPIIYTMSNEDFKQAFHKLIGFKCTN

SMILES	IC50 [nM]
Cc1nc(-c2ccc3[nH]cc(C4=CCNCC4)c3c2)cs1 [Example 20, 4-[3-(1,2,5,6-Tetrahydropyrid-4-yl)indol-5-yl]-2-methylthiazole]	≥ 1000
Cc1csc(Cc2ccc3[nH]cc(C4=CCNCC4)c3c2)n1 [Example 26, 2-[3-(1,2,5,6-Tetrahydropyrid-4-yl)indol-5-ylmethyl]-4-methylthiazole]	≥ 1000

Same assay, conditions: method of Heuring and Peroutka, J. Neuroscience, 7, 894 (1987); read-out: IC50 (5-HT1D activity)

SMILES	IC50 [nM]
CN(C)CCc1c[nH]c2ccc(-c3nc(COc4ccccc4)cs3)cc12 [Example 15A, 2-[3-(N,N-Dimethylaminoethyl)indol-5-yl]-4-(phenoxymethyl)thiazole]	≥ 1000
CN(C)CCc1c[nH]c2ccc(-c3nccs3)cc12 [Example 7, 2-[3-(N,N-Dimethylaminoethyl)indol-5-yl]thiazole]	≥ 1000
CN1CCC(c2c[nH]c3ccc(-c4nc(CNc5ccccc5)cs4)cc23)CC1 [Example 28, 2-[3-(1-Methylpiperidin-4-yl)indol-5-yl]-4-(phenylaminomethyl)thiazole]	≥ 1000
CN(C)CCc1c[nH]c2ccc(-c3nc(CSc4ccccc4)cs3)cc12 [Example 15B, 2-[3-(N,N-Dimethylaminoethyl)indol-5-yl)-4-(thiophenoxymethyl)thiazole]	≥ 1000
CN(C)CCc1c[nH]c2ccc(-c3nc(CNc4ccccc4)cs3)cc12 [Example 13, 2-[3-(N,N-Dimethylaminoethyl)-indol-5-yl]-4-(phenylaminomethyl)thiazole]	≥ 1000
